Reference: the NIST ThermoML archive (doi:10.1016/j.jct.2009.07.005)

How the values were obtained:
[1] = xn = mol fraction of the nth substance listed; conditions: 101 kPa, Liquid, Small sample (50 mg) DSC
[2] = molar heat capacity at constant pressure; xn = mol fraction of the nth substance listed; conditions: 101 kPa, Liquid, Small sample (50 mg) DSC
[3] = molar heat capacity at constant pressure; conditions: 101.33 kPa, Liquid, Small sample (50 mg) DSC

C1CNCCN1 [piperazine] + CN(CCO)CCO
Conditions	excess molar heat capacity, x1 = 0.1 [J/K/mol]	excess molar heat capacity, x1 = 0.2 [J/K/mol]	excess molar heat capacity, x1 = 0.3 [J/K/mol]	excess molar heat capacity, x1 = 0.4 [J/K/mol]	molar heat capacity at constant pressure, x1 = 0.1 [J/K/mol]	molar heat capacity at constant pressure, x1 = 0.2 [J/K/mol]	molar heat capacity at constant pressure, x1 = 0.3 [J/K/mol]	molar heat capacity at constant pressure, x1 = 0.4 [J/K/mol]
[1], 303.2 K	2.3	3.92	5.4	6.21	–	–	–	–
[1], 308.2 K	2.46	4.22	5.73	6.61	–	–	–	–
[1], 313.2 K	2.63	4.52	6.06	7.01	–	–	–	–
[1], 318.2 K	2.79	4.82	6.4	7.41	–	–	–	–
[1], 323.2 K	2.97	5.11	6.74	7.82	–	–	–	–
[1], 328.2 K	3.12	5.51	7.06	8.22	–	–	–	–
[1], 333.2 K	3.29	5.82	7.41	8.62	–	–	–	–
[1], 338.2 K	3.46	6.1	7.73	9.02	–	–	–	–
[1], 343.2 K	3.63	6.4	8.06	9.42	–	–	–	–
[1], 348.2 K	3.79	6.7	8.39	9.83	–	–	–	–
[1], 353.2 K	3.95	6.99	8.72	10.23	–	–	–	–
[2], 303.2 K	–	–	–	–	264.4	256.6	248.7	240.1
[2], 308.2 K	–	–	–	–	267.7	260	252	243.3
[2], 313.2 K	–	–	–	–	271.1	263.3	255.2	246.6
[2], 318.2 K	–	–	–	–	274.4	266.7	258.5	249.8
[2], 323.2 K	–	–	–	–	277.7	270	261.8	253
[2], 328.2 K	–	–	–	–	281	273.5	265.1	256.3
[2], 333.2 K	–	–	–	–	284.4	276.8	268.4	259.5
[2], 338.2 K	–	–	–	–	287.7	280.2	271.6	262.7
[2], 343.2 K	–	–	–	–	291.1	283.5	274.9	266
[2], 348.2 K	–	–	–	–	294.4	286.9	278.2	269.2
[2], 353.2 K	–	–	–	–	297.7	290.2	281.4	272.4

C1CNCCN1 [piperazine]
[3]
Conditions	molar heat capacity at constant pressure [J/K/mol]
393.2 K	216.3
398.2 K	218.7
403.2 K	220.5
408.2 K	222.8
413.2 K	225

C1CNCCN1 [piperazine] + O
Conditions	excess molar heat capacity, x1 = 0.05 [J/K/mol]	excess molar heat capacity, x1 = 0.1 [J/K/mol]	excess molar heat capacity, x1 = 0.15 [J/K/mol]	excess molar heat capacity, x1 = 0.2 [J/K/mol]	molar heat capacity at constant pressure, x1 = 0.05 [J/K/mol]	molar heat capacity at constant pressure, x1 = 0.1 [J/K/mol]	molar heat capacity at constant pressure, x1 = 0.15 [J/K/mol]	molar heat capacity at constant pressure, x1 = 0.2 [J/K/mol]
[1], 303.2 K	2.16	3.88	5.53	7.95	–	–	–	–
[1], 308.2 K	2.37	4.28	6.13	8.65	–	–	–	–
[1], 313.2 K	2.58	4.68	6.73	9.35	–	–	–	–
[1], 318.2 K	2.78	5.08	7.33	10.05	–	–	–	–
[1], 323.2 K	2.99	5.58	7.93	10.75	–	–	–	–
[1], 328.2 K	3.2	5.98	8.53	11.45	–	–	–	–
[1], 333.2 K	3.41	6.38	9.03	12.25	–	–	–	–
[1], 338.2 K	3.62	6.78	9.53	12.95	–	–	–	–
[1], 343.2 K	3.83	7.18	10.13	13.65	–	–	–	–
[1], 348.2 K	4.04	7.58	10.63	14.35	–	–	–	–
[1], 353.2 K	4.25	7.98	11.23	15.05	–	–	–	–
[2], 303.2 K	–	–	–	–	82.5	89.4	96.1	103.7
[2], 308.2 K	–	–	–	–	82.8	90	97	104.8
[2], 313.2 K	–	–	–	–	83.2	90.6	98	105.9
[2], 318.2 K	–	–	–	–	83.5	91.2	98.9	107.1
[2], 323.2 K	–	–	–	–	83.8	92	99.9	108.2
[2], 328.2 K	–	–	–	–	84.2	92.6	100.8	109.4
[2], 333.2 K	–	–	–	–	84.5	93.3	101.7	110.6
[2], 338.2 K	–	–	–	–	84.9	93.9	102.5	111.8
[2], 343.2 K	–	–	–	–	85.3	94.6	103.5	113
[2], 348.2 K	–	–	–	–	85.6	95.2	104.4	114.1
[2], 353.2 K	–	–	–	–	86	95.9	105.3	115.3
